According to US5015661A, “Chromanes and their pharmaceutical compositions and methods” (Hoffmann-La Roche Inc., priority 1989, dated 1991):

Target: superoxide-dependent, iron-promoted lipid peroxidation of native rat heart cardiac lipid liposomes
Test: Lipid peroxidation inhibition (in vitro testing of antiperoxidative agents, ANTI-OX), hypoxanthine-xanthine oxidase-Fe3+.ADP, rat cardiac liposomes, MDA equivalents
Format: biochemical
Details: 60 min, 37° C., screened at 1.0 μM, IC50 determined if inhibition ≥ 50%, read-out: ANTI-OX IC-50
Procedure: The test system employs hypoxanthine-xanthine oxidase (XO)-Fe^3+. ADP as the free radical generator and purified, native rat-heart membrane phosphoglyceride in Hepes-KCl buffer, pH 7.4, as the substrate. Inhibition of superoxide-dependent, iron-promoted lipid peroxidation in the linear reaction phase (after 1 hour of reaction) is measured as the net formation of thiobarbituric acid (TBA)-reactive material. In this system, the TBA-reactive material, isolated by HPLC, is exclusively (>95%) malondialdehyde (MDA), a fragmentation end-product arising from fatty acyl hydroperoxides and cyclic endoperoxides. […]
a) Isolation and purification of Rat Cardiac Lipid
Conscious male Sprague-Dawley rats (~275g) maintained on a normal rodent diet were decapitated. The hearts were rapidly removed and perfused via the aorta with ice-cold 10 mM Hepes buffer, pH 7.4. The aorta and atria were removed, and the ventricular tissue was blotted and weighed (wet weight). The hearts were minced on ice with scissors and finally homogenized (100 mg tissue/ml ice-cold buffer) for 15 seconds (3×5 seconds) with a Tekmar Tissumizer at "maximal" setting. The homogenate was filtered through 4-ply cheesecloth, and homogenate lipids were extracted and purified by a modified Bligh-Dyer procedure (M.D. Marshall and M. Kates, Biochem. Biophys. Acta 260, 558 (1972). The cardiac lipids were stored in CHCl3 under nitrogen at -20° C. […]
b) Preparation of Cardiac Liposomes
Liposomes were prepared from extracted and purified, native rat heart cardiac lipid and were used as substrate for free-radical attack. Cardiac lipid (in CHCl3) was placed in a glass flask and evaporated to dryness under nitrogen at room temperature; the flask was gently rotated during evaporation to yield a thin, dry lipid film. The lipid was taken up in 10 mM Hepes-0.145M KCl, pH 7.4, and was resuspended by indirect an aerobic sonification for 15 minutes at room temperature. The liposome suspension was used immediately. […]
c) preparation of Fe^3+ -ADP Chelate
A chelate was formed in Hepes-KCl buffer between Fe^3+ (1.0mM FeCl3, final concentration) and ADP (10mM, final concentration) at pH 7.4 with stirring at room temperature. Chelation was allowed to proceed for 90 minutes prior to use. The chelate was prepared fresh for each days experiments to ensure iron solubility, effective chelation, and valence state. […]
d) Thiobarbituric Acid Reaction or Determination of Malondialdehvde Equivalents Malondialdehyde (MDA) equivalents were measured as thiobarbituric acid (TBA)-reactive material by the following modification of published methods. The reaction mixture. prepared fresh daily, contained water: BHT ([…] BHT in absolute ethanol): TBA (1.5% TBA in 0.2M Tris, pH 7.0) in the volume ratio 1:1:5. To each 1.0 ml of peroxidation reaction assayed (see below), 0.35 ml reaction mixture was added. After thorough mixing, the tubes were incubated in an 80° C. shaking water bath for 30 minutes. After this time, the tubes were plunged into an ice water bath, and the reaction was immediately stopped with 0.5 ml ice-cold 91% TCA followed by 2.0 ml CHCl3 After centrifugation for 30 minutes at 2000 rpm in a Sorval HL-8 rotor (4° C.), the absorbance of the washed, pink upper phase was read at 532 nm. A standard curve (0.8-40.0 nmol MDA) was run with every assay. For each curve, MDA was freshly prepared by acidification of 1,1,3,3 -tetraethoxypropane with 75% TCA-2.3N HCl (0.15 ml acid mixture with 1.0 ml suitably diluted tetraethoxypropane). Computer-assisted regression analysis of the standard curve was used to quantify the molar amounts of MDA equivalents in the experimental samples. […]
e) Lipid peroxidation Reaction
Cardiac liposomes were subjected to superoxidedependent. iron-promoted peroxidation in glass vessels to avoid the well-known antioxidant effects of many common polymerizing agents used to fabricate plastic labware. […]

| Compound | IC50 [nM] |
| --- | --- |
| Cc1c(C)c2c(c(C)c1O)CCC(C)(C#Cc1ccc(-c3cccnc3)cc1)O2 (racemic) [Example 24, rac-3,4-Dihydro-2,5,7,8-tetramethyl-2-{[4-(3-pyridinyl)-phenyl]ethynyl}-2H-1-benzopyran-6-ol] | 800 |
| Cc1c(C)c2c(c(C)c1O)CCC(C)(C#Cc1ccc(-c3ccccn3)s1)O2 (racemic) [Example 26, rac-3,4-Dihydro-2,5,7,8-tetramethyl-2-{[5-(2-pyridinyl)-2-thienyl]ethynyl}-2H-1-benzopyran-6-ol] | 550 |
| Cc1c(C)c2c(c(C)c1O)CCC(C)(C#Cc1cnc3ccccc3c1)O2 (racemic) [Example 33, rac-3,4-Dihydro-2,5,7,8-tetramethyl-2-(3-quinolinylethynyl)-2H-1-benzopyran-6-ol] | 850 |
| COc1cc(CO)cc2cc(C3(C)CCc4c(C)c(O)c(C)c(C)c4O3)oc12 (racemic) [Example 55, rac-2-(3,4-Dihydro-6-hydroxy-2,5,7,8-tetramethyl-2H-1-benzopyran-2-yl)-7-methoxybenzofuran-5-methanol] | 850 |
| COc1ccc(CCC2(C)CCc3c(C)c(O)c(C)c(C)c3O2)cc1OC(C)=O (racemic) [Example 60, rac-2-{2-[3-(Acetyloxy)-4-methoxyphenyl]ethyl}-3,4-dihydro-2,5,7,8-tetramethyl-2H-1-benzopyran-6ol] | > 1000 |
| COc1cccc(CCC2(C)CCc3c(C)c(O)c(C)c(C)c3O2)c1 (racemic) [Example 62, rac-3,4-Dihydro-2-[2-(3-methoxyphenyl)ethyl]-2,5,7,8-tetramethyl-2H-1-benzopyran-6-ol] | > 1000 |
| COC(=O)c1cc(CCC2(C)CCc3c(C)c(O)c(C)c(C)c3O2)ccc1O (racemic) [Example 63, rac-5-[2-(3,4-Dihydro-6-hydroxy-2,5,7,8-tetramethyl-2H-1-benzopyran-2-yl)ethyl]-2-hydroxybenzoic acid methyl ester] | > 1000 |
| Cc1c(C)c2c(c(C)c1O)CCC(C)(CCc1ccc(-c3cccnc3)cc1)O2 (racemic) [Example 64, rac-3,4-Dihydro-2,5,7,8-tetramethyl-2-{2-[4-(3-pyridinyl)-phenyl]ethyl}-2H-1-benzopyran-6-ol] | > 1000 |
| Cc1c(C)c2c(c(C)c1O)CCC(C)(CCc1ccc(-c3ccccn3)s1)O2 (racemic) [Example 65, rac-3,4-Dihydro-2,5,7,8-tetramethyl-2-{2-[5-(2-pyridinyl)-2-thienyl]ethyl}-2H-1-benzopyran-6ol] | > 1000 |
| CCCCc1ccc(CCC2(C)CCc3c(C)c(O)c(C)c(C)c3O2)s1 (racemic) [Example 66, rac-2-[2-(5-Butyl-2-thienyl)ethyl]-3,4-dihydro-2,5,7,8-tetramethyl-2H-1-benzopyran-6-ol] | > 1000 |

Now from value to molecule:

| IC50 [nM] | Compound |
| --- | --- |
| > 1000 | COc1ccc(C#CC2(C)CCc3c(C)c(O)c(C)c(C)c3O2)cc1OC(C)=O (racemic) [Example 20, rac-2-[(3-Acetyloxy-4-methoxyphenyl)ethynyl]-3.4-dihydro-2,5,7,8-tetramethyl-2H-1-benzopyran-6-ol] |
| > 1000 | COc1cccc(C#CC2(C)CCc3c(C)c(O)c(C)c(C)c3O2)c1 (racemic) [Example 22, rac-3,4-Dihydro-2-(3-methoxyphenyl)ethynyl)-2,5,7,8-tetra-methyl-2H-1-benzopyran-6-ol] |
| 900 | COC(=O)c1cc(C#CC2(C)CCc3c(C)c(O)c(C)c(C)c3O2)ccc1O (racemic) [Example 23, rac-5-(3,4-Dihydro-6-hydroxy-2,5,7,8-tetramethyl-2H-1-benzopyran-2-yl)ethynyl]-2-hydroxybenzoic acid methyl ester] |
| > 1000 | COc1cc(C=O)cc(C#CC2(C)CCc3c(C)c(O)c(C)c(C)c3O2)c1O (racemic) [Example 28, rac-3-[(3,4-Dihydro-6-hydroxy-2,5,7,8-tetramethyl-2H-1-benzopyran-2-yl)ethynyl]-4-hydroxy-5-methoxybenzaldehyde] |
| > 1000 | COc1cc(CO)cc(C#CC2(C)CCc3c(C)c(O)c(C)c(C)c3O2)c1O (racemic) [Example 29, rac-3-[(3,4-Dihydro-6-hydroxy-2,5,7,8-tetramethyl-2H-1-benzopyran-2-yl)ethynyl]-4-hydroxy-5-methoxybenzenemethanol] |
| > 1000 | COc1cc(C=NO)cc(C#CC2(C)CCc3c(C)c(O)c(C)c(C)c3O2)c1O (racemic) [Example 30, rac-3-[(3,4-Dihydro-6-hydroxy-2,5,7,8-tetramethyl-2H-1-benzopyran-2yl)ethynyl]-4-hydroxy-5-methoxybenzaldehydeoxime] |
| > 1000 | Cc1c(C)c2c(c(C)c1O)CCC(C)(C#Cc1cncc3ccccc13)O2 (racemic) [Example 34, rac-3,4-Dihydro-2-[(4-isoquinolinyl)ethynyl]-2,5,7,8-tetramethyl-2H-1-benzopyran-6-ol] |
| > 1000 | Cc1c(C)c2c(c(C)c1O)CCC(C)(C#Cc1ccc(F)c(F)c1)O2 (racemic) [Example 36, rac-2-[(3,4-Difluorophenyl)ethynyl]-3,4-dihydro-2,5,7,8-tetramethyl-2H-1-benzopyran-6-ol] |
| > 1000 | Cc1c(C)c2c(c(C)c1O)CCC(C)(C#Cc1cccc3ccccc13)O2 (racemic) [Example 39, rac-3,4-Dihydro-2,5,7,8-tetramethyl-2-(1-naphthyl)ethynyl-2H-1-benzopyran-6-ol] |
| > 1000 | Cc1c(C)c2c(c(C)c1O)CCC(C)(C#Cc1ccccc1N)O2 (racemic) [Example 40, rac-2-[(2-Aminophenyl)ethynyl]-3,4-dihydro-2,5,7,8-tetramethyl-2H-1-benzopyran-6-ol] |
| 700 | Cc1c(C)c2c(c(C)c1O)CCC(C)(C#Cc1ccccc1O)O2 (racemic) [Example 50 (2-HO-phenyl), rac-3,4-Dihydro-2-[(2-hydroxyphenyl)ethynyl]-2,5,7,8-tetramethyl-2H-1-benzopyran-6-ol] |
| 750 | Cc1c(C)c2c(c(C)c1O)CCC(C)(C#Cc1ccc3c(c1)N(C)C(=O)CO3)O2 (stereo not shown) [Example 48] |
